Source: patent US20030186967A1, “Acylresorcinol derivatives are selective vitronectin receptor inhibitors” (American Home Products Corporation, priority 1998, published 2003)
Where a name gives a salt, the structure may show the parent alone.

What follows are molecules tested against T1, Vitronectin receptor αVβ3 (Homo sapiens, UniProt P05106+P06756) (assay: Vitronectin Receptor αVβ3 Binding Assay). Conditions: read-out: VnR (IC50μM).
T1 construct: expressed in transfected cells; host or cells: 512P5 cells (plasma membrane preparation)
T1 sequence (P06756 31-889 limits assumed): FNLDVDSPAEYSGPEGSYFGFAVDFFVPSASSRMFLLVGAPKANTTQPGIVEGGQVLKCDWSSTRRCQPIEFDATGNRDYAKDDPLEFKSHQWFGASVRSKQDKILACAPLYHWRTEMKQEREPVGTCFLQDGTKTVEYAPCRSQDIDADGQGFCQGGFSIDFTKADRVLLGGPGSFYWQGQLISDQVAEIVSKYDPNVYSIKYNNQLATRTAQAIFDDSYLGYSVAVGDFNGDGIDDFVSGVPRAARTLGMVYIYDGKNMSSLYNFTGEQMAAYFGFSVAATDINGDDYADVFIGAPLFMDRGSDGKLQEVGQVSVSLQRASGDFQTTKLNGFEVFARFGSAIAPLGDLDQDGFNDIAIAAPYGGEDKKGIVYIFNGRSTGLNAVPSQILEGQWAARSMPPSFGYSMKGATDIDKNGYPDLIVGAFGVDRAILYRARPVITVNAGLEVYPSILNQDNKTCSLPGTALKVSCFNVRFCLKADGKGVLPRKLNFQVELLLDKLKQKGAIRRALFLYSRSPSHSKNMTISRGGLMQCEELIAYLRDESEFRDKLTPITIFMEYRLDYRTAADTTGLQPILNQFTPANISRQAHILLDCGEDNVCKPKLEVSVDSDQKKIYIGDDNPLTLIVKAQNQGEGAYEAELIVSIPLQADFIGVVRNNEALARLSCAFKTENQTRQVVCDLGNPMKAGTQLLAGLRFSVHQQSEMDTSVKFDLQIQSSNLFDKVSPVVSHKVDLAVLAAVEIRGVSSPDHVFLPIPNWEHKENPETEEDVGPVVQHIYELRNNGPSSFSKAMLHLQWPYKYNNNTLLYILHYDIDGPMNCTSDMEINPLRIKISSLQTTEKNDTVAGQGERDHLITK
T1 sequence (P06756 891-1048 partner limits assumed): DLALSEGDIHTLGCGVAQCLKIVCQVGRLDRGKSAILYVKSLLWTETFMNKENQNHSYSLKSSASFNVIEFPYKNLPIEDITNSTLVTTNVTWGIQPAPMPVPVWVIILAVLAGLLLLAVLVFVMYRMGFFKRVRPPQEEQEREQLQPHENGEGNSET
T1 sequence (P05106 27-788): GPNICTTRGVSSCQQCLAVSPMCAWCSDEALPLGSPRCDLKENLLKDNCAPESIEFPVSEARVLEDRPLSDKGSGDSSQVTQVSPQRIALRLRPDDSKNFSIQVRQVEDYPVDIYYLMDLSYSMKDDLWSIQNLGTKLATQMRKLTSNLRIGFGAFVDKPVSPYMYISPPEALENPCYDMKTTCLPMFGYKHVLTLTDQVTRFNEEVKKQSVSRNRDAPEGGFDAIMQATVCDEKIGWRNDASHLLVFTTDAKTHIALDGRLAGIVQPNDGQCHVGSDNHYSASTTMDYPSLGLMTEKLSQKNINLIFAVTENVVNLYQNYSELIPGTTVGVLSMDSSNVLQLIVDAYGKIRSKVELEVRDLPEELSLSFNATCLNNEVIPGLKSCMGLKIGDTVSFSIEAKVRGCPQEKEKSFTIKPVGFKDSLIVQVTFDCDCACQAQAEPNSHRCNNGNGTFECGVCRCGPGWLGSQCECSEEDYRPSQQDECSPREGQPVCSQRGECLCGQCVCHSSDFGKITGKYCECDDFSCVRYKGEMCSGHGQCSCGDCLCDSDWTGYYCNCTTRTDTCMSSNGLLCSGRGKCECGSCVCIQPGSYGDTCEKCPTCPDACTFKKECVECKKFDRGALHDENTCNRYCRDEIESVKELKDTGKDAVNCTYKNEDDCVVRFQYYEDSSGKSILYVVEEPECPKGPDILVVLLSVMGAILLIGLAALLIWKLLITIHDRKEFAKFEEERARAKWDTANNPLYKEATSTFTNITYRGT

Row | SMILES | IC50
1 | O=C(NCc1ccccc1)N[C@@H](CNC(=O)c1ccc(OCCNC2=NCCN2)cc1O)C(=O)O [Example 113, (2S)-2-{[(benzylamino)carbonyl]amino}-3-({^4-[2-(4,5-dihydro-1H-imidazol-2-ylamino)ethoxy]-2-hydroxybenzoyl}amino)propanoic acid] | 3.03 µM
2 | O=C(/C=C/c1ccccc1)N[C@@H](CNC(=O)c1ccc(OCCNC2=NCCN2)cc1O)C(=O)O [Example 130, (2S)-3-({4-[2-(4,5-dihydro-1H-imidazol-2-ylamino)ethoxy]-2-hydroxybenzoyl}-amino)-2-{[(E)-3-phenylprop-2-enoyl]amino}propanoic acid] | > 1 µM
3 | CCCCOC(=O)N[C@@H](CNC(=O)c1ccc(OCCNC2=NCCCN2)cc1O)C(=O)O [Example 11, (2S)-3-({2-hydroxy-4-[2-(1,4,5,6-tetrahydropyrimidin-2-ylamino)ethoxy]-benzoyl}amino)-2-[(butoxycarbonyl)amino]propanoic acid] | 0.0696 µM
4 | O=C(N[C@@H](CNC(=O)c1ccc(OCCNC2=NCCCCC2)cc1O)C(=O)O)OCc1ccccc1 [Example 143, (2S)-2-{[(benzyloxy)carbonyl]amino}-3-({2-hydroxy-4-[2-(3,4,5,6-tetrahydro-2-azepin-7-ylamino)ethoxy]benzoyl}amino)propanoic acid] | 4.79 µM
5 | CCCCOC(=O)N[C@@H](CNC(=O)c1ccc(OCCNC(=O)NCc2ccccc2)cc1O)C(=O)O [Example 231, (2S)-3-{[4-(2-{[(benzylamino)carbonyl]amino}ethoxy)-2-hydroxybenzoyl]amino}-2-[(butoxycarbonyl)amino]propanoic acid] | 6.7 µM
6 | COC(=O)N[C@@H](CNC(=O)c1ccc(OCCNC(=N)N)cc1O)C(=O)O [Example 158, (2S)-3-{[4-(2-{[amino(imino)methyl]amino)ethoxy)-2-hydroxybenzoyl]amino}-2-[(methoxycarbonyl)amino]propanoic acid] | 4.6 µM
7 | CC(C)COC(=O)N[C@@H](CNC(=O)c1ccc(OCCNC(=O)NCc2cccnc2)cc1O)C(=O)O [Example 246, (2S)-3-({2-hydroxy-4-[2-({[(pyridin-3-ylmethyl)amino]carbonyl}-amino)ethoxy]-benzoyl}amino)-2-[(isobutoxycarbonyl)amino]propanoic acid] | 1.6 µM
8 | N=C(N)NCCOc1ccc(C(=O)NC[C@H](NC(=O)Nc2ccc(OC(F)(F)F)cc2)C(=O)O)c(O)c1 [Example 179, (2S)-3-{[4-(2-{[amino(imino)methyl]amino}ethoxy)-2-hydroxybenzoyl]amino}-2-({[4-(trifluoromethoxy)anilino]carbonyl}amino)propanoic acid] | > 1 µM
9 | CC(C)OC(=O)N[C@@H](CNC(=O)c1ccc(OCCNC(=O)NCc2cccnc2)cc1O)C(=O)O [Example 237, (2S)-3-({2-hydroxy-4-[2-({[(pyridin-3-ylmethyl)amino]carbonyl}-amino)ethoxy]-benzoyl}amino)-2-[(isopropoxycarbonyl)amino]propanoic acid] | 2.7 µM
10 | Cc1ccccc1CNC(=O)NCCOc1ccc(C(=O)NC[C@H](NC(=O)OCc2ccccc2)C(=O)O)c(O)c1 [Example 268] | 33.4 µM
11 | CC(C)(C)COC(=O)N[C@@H](CNC(=O)c1ccc(OCCNC(=O)NCc2ccccc2)cc1O)C(=O)O [Example 219, (2S)-3-{[4-(2-{[(benzylamino)carbonyl]amino}ethoxy)-2-hydroxy-benzoyl]amino}-2-{[(neopentyloxy)carbonyl]amino}propanoic acid] | 1.8 µM
12 | O=C(Nc1ccc(Cl)cc1)N[C@@H](CNC(=O)c1ccc(OCCNc2ncccn2)cc1O)C(=O)O [Example 86, (2S)-2-{[(4-chloroanilino)carbonyl]amino}-3-({2-hydroxy-4-[2-(pyrimidin-2-ylamino)ethoxy]benzoyl}amino)propanoic acid] | > 1 µM
13 | O=C(NCCOc1ccc(C(=O)NC[C@H](NC(=O)OCC(Cl)(Cl)Cl)C(=O)O)c(O)c1)NCc1ccncc1 [Example 258, (2S)-3-({2-hydroxy-4-[2-({[(pyridin-4-ylmethyl)amino]carbonyl}amino)-ethoxy]-benzoyl}amino)-2-{[(2,2,2-trichloroethoxy)carbonyl]amino}propanoic acid] | 4.31 µM
14 | CCCCCC(=O)N[C@@H](CNC(=O)c1ccc(OCCNC(=N)N)cc1O)C(=O)O [Example 192, (2S)-3-{[4-(2-{[amino(imino)methyl]amino}ethoxy)-2-hydroxybenzoyl]amino}-2-(hexanoylamino)propanoic acid] | > 1 µM
15 | O=C(NCCOc1ccc(C(=O)NC[C@H](NC(=O)OCc2ccccc2)C(=O)O)c(O)c1)NCc1ccncc1 [Example 247, (2S)-2-{[(benzyloxy)carbonyl]amino}-3-({2-hydroxy-4-[2-({[(pyridin-4-ylmethyl)amino]carbonyl}amino)ethoxy]benzoyl}amino)propanoic acid] | 5.5 µM
16 | O=C(NCCOc1ccc(C(=O)NC[C@H](NC(=O)OCc2ccccc2)C(=O)O)c(O)c1)NCc1ccccn1 [Example 272, (2S)-2-{[(benzyloxy)carbonyl]amino}-3-({2-hydroxy-4-[2-({[(pyridin-2-ylmethyl)-amino]carbonyl}amino)ethoxy]benzoyl}amino)propanoic acid] | 10.6 µM
17 | CCCCCCOC(=O)N[C@@H](CNC(=O)c1ccc(OCCNC2=NCCCN2)cc1O)C(=O)O [Example 8, (2S)-2-{[(hexyloxy)carbonyl]amino}-3-({2-hydroxy-4-[2-(1,4,5,6-tetrahydropyrimidin-2-ylamino)ethoxy]benzoyl}amino)propanoic acid] | > 1 µM
18 | C#CCCC(=O)N[C@@H](CNC(=O)c1ccc(OCCNC(=N)N)cc1O)C(=O)O [Example 197, (2S)-3-{[4-(2-{[amino(imino)methyl]amino}ethoxy)-2-hydroxybenzoyl]amino}-2-(pent-4-ynoylamino)propanoic acid] | > 1 µM
19 | O=C(N[C@@H](CNC(=O)c1ccc(OCCNC2=NCCN2)cc1O)C(=O)O)c1ccc(Cl)cc1 [Example 134, (2S)-2-[(4-chlorobenzoyl)amino]-3-({4-[2-(4,5-dihydro-1H-imidazol-2-ylamino) -ethoxy]-2-hydroxybenzoyl}amino)propanoic acid] | > 1 µM

The remaining lines, values ahead:

Row | IC50 | SMILES
20 | 0.159 µM | O=C(Nc1ccccc1Br)N[C@@H](CNC(=O)c1ccc(OCCNC2=NCCCN2)cc1O)C(=O)O [Example 28, (2S)-2-{[(2-bromoanilino)carbonyl]amino}-3-({2-hydroxy-4-[2-(1,4,5,6-tetrahydropyrimidin-2-ylamino)ethoxy]benzoyl}amino)propanoic acid]
21 | 1.27 µM | O=C(Nc1ccc(Cl)cc1)N[C@@H](CNC(=O)c1ccc(OCCNC2=NCCCN2)cc1O)C(=O)O [Example 30, (2S)-2-{[(4-chloroanilino)carbonyl]amino}-3-({2-hydroxy-4-[2-(1,4,5,6-tetrahydropyrimidin-2-ylamino)ethoxy]benzoyl}amino)propanoic acid]
22 | 0.15 µM | CCOC(=O)N[C@@H](CNC(=O)c1ccc(OCCNC2=NCCN2)cc1O)C(=O)O [Example 98, (2S)-3-({4-[2-(4,5-dihydro-1H-imidazol-2-ylamino)ethoxy]-2-hydroxybenzoyl}-amino)-2-[(ethoxycarbonyl)amino]propanoic acid]
23 | 0.21 µM | C#CCOC(=O)N[C@@H](CNC(=O)c1ccc(OCCNC2=NCCN2)cc1O)C(=O)O [Example 103, (2S)-3-({4-[2-(4,5-dihydro-1H-imidazol-2-ylamino)ethoxy]-2-hydroxybenzoyl}-amino)-2-{[(prop-2-ynyloxy)carbonyl]amino}propanoic acid]
24 | 0.061 µM | O=C(N[C@@H](CNC(=O)c1ccc(OCCNC2=NCCCN2)cc1O)C(=O)O)OCC(Cl)(Cl)Cl [Example 10, (2S)-3-({2-hydroxy-4-[2-(1,4,5,6-tetrahydropyrimidin-2-ylamino)ethoxy]-benzoyl}amino)-2-{[(2,2,2-trichloroethoxy)carbonyl]amino}propanoic acid]
25 | 0.26 µM | O=C(O)CC(NC(=O)c1ccc(OCCNc2ncccn2)cc1O)c1ccccc1 (stereo not shown) [Example 287, 3-[2-hydroxy-4-[2-(pyrimidin-2-ylamino)-ethoxy]benzoyl-amino]-3-phenyl-propanoic acid hydrochloride]
26 | 0.251 µM | CCCCCCNC(=O)N[C@@H](CNC(=O)c1ccc(OCCNC2=NCCN2)cc1O)C(=O)O [Example 109, (2S)-3-({4-[2-(4,5-dihydro-1H-imidazol-2-ylamino)ethoxy]-2-hydroxybenzoyl}-amino)-2-{[(hexylamino)carbonyl]amino}propanoic acid]
27 | 0.0241 µM | CC(C)(C)COC(=O)N[C@@H](CNC(=O)c1ccc(OCCNC2=NCCCN2)cc1O)C(=O)O [Example 1, (2S)-3-({2-hydroxy-4-[2-(1,4,5,6-tetrahydropyrimidin-2-ylamino)ethoxy]benzoyl}amino)-2-{[(neopentyloxy)carbonyl]amino}propanoic acid]
28 | 0.061 µM | CC(C)OC(=O)N[C@@H](CNC(=O)c1ccc(OCCNC2=NCCCN2)cc1O)C(=O)O [Example 5, (2S)-3-({2-hydroxy-4-[2-(1,4,5,6-tetrahydropyrimidin-2-ylamino)ethoxy]benzoyl}-amino)-2-[(isopropoxycarbonyl)amino]propanoic acid]
29 | 1.02 µM | Cc1ccc(NC(=O)N[C@@H](CNC(=O)c2ccc(OCCNC3=NCCCN3)cc2O)C(=O)O)cc1 [Example 23, (2S)-3-({2-hydroxy-4-[2-(1,4,5,6-tetrahydropyrimidin-2-ylamino)ethoxy]benzoyl}-amino)-2-[(4-toluidinocarbonyl)amino]propanoic acid]
30 | 1.48 µM | Cc1ccccc1NC(=O)N[C@@H](CNC(=O)c1ccc(OCCNC2=NCCCN2)cc1O)C(=O)O [Example 24, (2S)-3-({2-hydroxy-4-[2-(1,4,5,6-tetrahydropyrimidin-2-ylamino)ethoxy]benzoyl}-amino)-2-[(2-toluidinocarbonyl)amino]propanoic acid]
31 | 0.0445 µM | O=C(N[C@@H](CNC(=O)c1ccc(OCCNC2=NCCCN2)cc1O)C(=O)O)OCc1ccccc1 [Example 14, (2S)-2-{[(benzyloxy)carbonyl]amino}-3-({2-hydroxy-4-[2-(1,4,5,6-tetrahydropyrimidin-2-ylamino)ethoxy]benzoyl}amino)propanoic acid]
